We go through 14 substances from patent publication US20240270821A1, “GIP/GLP1/GCG TRI-RECEPTOR AGONISTS AND USES THEREOF” (priority 2023, published 2024).

Holding throughout (type): cell-based
The target in experiment [1] is T1, hGIPR (Homo sapiens, UniProt P48546).
T1 sequence (P48546 22-466): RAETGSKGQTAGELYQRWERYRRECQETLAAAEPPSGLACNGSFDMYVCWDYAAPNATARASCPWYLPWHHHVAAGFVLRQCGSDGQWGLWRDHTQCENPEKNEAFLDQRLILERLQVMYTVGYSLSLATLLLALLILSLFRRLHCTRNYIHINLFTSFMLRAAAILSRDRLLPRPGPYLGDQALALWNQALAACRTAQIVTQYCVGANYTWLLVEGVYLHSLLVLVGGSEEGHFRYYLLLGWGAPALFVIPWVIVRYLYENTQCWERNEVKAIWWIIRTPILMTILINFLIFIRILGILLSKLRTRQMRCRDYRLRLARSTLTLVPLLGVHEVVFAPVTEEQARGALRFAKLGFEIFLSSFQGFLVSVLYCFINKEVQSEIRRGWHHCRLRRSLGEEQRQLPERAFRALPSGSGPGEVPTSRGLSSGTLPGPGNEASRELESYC
The experiment in a line: Functional cAMP activity in the presence of 1% HSA. Conditions: read-out: cAMP Rel EC50, hGIPR.

For the next experiment, the target named is human GcgR (Homo sapiens, UniProt P47871). The experiment in a line: Functional cAMP activity in the presence of 1% HSA. Particulars: read-out: cAMP Rel EC50, hGcgR.
Sequence of human GcgR (P47871 26-477): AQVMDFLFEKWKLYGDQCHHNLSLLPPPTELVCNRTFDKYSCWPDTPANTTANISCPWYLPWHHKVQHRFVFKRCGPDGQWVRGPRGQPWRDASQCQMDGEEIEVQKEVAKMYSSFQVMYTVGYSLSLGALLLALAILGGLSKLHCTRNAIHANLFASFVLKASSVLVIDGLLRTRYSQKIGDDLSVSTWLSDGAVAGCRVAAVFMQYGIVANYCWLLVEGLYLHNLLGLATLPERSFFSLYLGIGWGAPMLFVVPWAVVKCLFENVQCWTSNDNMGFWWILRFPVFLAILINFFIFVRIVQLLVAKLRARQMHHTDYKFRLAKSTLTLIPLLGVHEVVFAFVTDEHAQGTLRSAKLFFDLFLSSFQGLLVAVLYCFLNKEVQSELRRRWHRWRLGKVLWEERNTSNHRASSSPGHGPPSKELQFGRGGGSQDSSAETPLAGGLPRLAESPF
In experiment [2] the target is T1, hGIPR. The experiment in a line: Functional cAMP activation in the presence of 0.1% casein (no HSA). Conditions: read-out: Relative cAMP EC50, hGIPR.
Experiment [3] has as its target T2, hGLP-1R (Homo sapiens, UniProt P43220). The description is as above. Particulars: read-out: Relative cAMP EC50, hGLP-1R.
In another experiment the target is hGcgR (Homo sapiens, UniProt P47871). The experiment is described as above. Particulars: read-out: Relative cAMP EC50, hGcgR.
Sequence of hGcgR (P47871 26-477): as above
Experiment [4] concerns the target T2, hGLP-1R. The experiment in a line: Functional cAMP activity in the presence of 1% HSA. Particulars: read-out: cAMP Rel EC50, hGLP-1R.
Where [5] appears, read: in the presence of 0.1% casein (no HSA), geometric mean.

Like-named read-outs stand apart in the source and are kept apart here. Starred links: 1 amine or outer side, 2 acyl side, 3 side chain; linkers in the order of their positions; H or OH if unused. Non-standard residues stand in square brackets, D forms with d. Groups on a side chain read outwards from the residue. No end group written: not given here. *: point of attachment. C20 diacid = O=C(O)CCCCCCCCCCCCCCCCCCC(=O)*; C18 diacid = O=C(O)CCCCCCCCCCCCCCCCC(=O)*; αMePhe(2-F) = C[C@](N)(Cc1ccccc1F)C(=O)O; γGlu = O=C(O)[C@H](CCC(=O)[*:2])N[*:1]; αMe4Pal = C[C@](N)(Cc1ccncc1)C(=O)O; αMeY = C[C@](N)(Cc1ccc(O)cc1)C(=O)O; 4Pal = N[C@@H](Cc1ccncc1)C(=O)O; αMeL = CC(C)C[C@](C)(N)C(=O)O; αMeS = C[C@](N)(CO)C(=O)O; Orn = NCCC[C@H](N)C(=O)O; Dab = NCC[C@H](N)C(=O)O; AEEA = NCCOCCOCC(=O)O; Aib = CC(C)(N)C(=O)O
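Throughout, for Relative cAMP EC50, hGIPR: intracellular cAMP rise after 30 min at 37 °C read by HTRF against a standard curve, scaled between buffer alone (0%) and top control ligand concentration (100%), four-parameter fit.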
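Throughout, for Relative cAMP EC50, hGLP-1R: intracellular cAMP rise after 30 min at 37 °C read by HTRF, normalized between buffer only (0%) and maximal control ligand (100%), four-parameter variable-slope fit.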
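Throughout, for Relative cAMP EC50, hGcgR: intracellular cAMP rise after 30 min at 37 °C, read by HTRF against a cAMP standard curve, scaled from buffer only (0%) to maximal control ligand response (100%).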

T2 sequence (P43220 24-463): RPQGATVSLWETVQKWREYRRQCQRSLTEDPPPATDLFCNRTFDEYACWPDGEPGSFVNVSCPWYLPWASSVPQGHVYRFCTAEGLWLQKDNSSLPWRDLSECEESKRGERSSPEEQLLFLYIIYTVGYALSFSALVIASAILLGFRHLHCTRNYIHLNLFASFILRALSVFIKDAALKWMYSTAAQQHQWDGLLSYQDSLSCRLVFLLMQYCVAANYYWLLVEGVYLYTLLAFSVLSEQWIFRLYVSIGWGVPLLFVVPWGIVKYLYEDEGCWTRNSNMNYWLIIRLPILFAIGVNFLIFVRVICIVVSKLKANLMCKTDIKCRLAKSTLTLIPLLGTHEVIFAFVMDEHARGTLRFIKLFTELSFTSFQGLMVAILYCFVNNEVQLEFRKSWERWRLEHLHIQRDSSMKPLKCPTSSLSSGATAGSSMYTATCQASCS

In the case of “H-Y[Aib]QGTFTSD[4Pal]S[Orn][αMeL]LDKK([γGlu-γGlu-C18 diacid])AQ[αMe4Pal]AFIEYLIAGGESSGAPPPSGSEE-NH2 [Example 964]”, the EC50 at hGIPR [1] came out at 21.4 nM; on human GcgR, 324 nM; at hGIPR [2] (setting [5]) it was 0.288 nM; on hGLP-1R [3] (setting [5]), 2.67 nM; at hGcgR (setting [5]) it was 2.75 nM; at hGLP-1R [4] it was 267 nM.

For “H-Y[Aib]QGT[αMePhe(2-F)]TSD[4Pal][αMeS]I[αMeL]LD[Orn]K([γGlu-γGlu-C18 diacid])AQ[Aib][Orn]FI[dE][αMeY]LSEGGPSSGEPPPSGGE-NH2 [Example 559]”, the EC50 at hGIPR [1] stood at 9.15 nM; on human GcgR it was 323 nM; at hGIPR [2], 0.119 nM; on hGLP-1R [3] it was 0.542 nM; at hGcgR it was 4.07 nM; on hGLP-1R [4] it was 49.7 nM.

In the case of “H-Y[Aib]QGT[αMePhe(2-F)]TSD[4Pal][αMeS]I[αMeL]LD[Orn]K([γGlu-γGlu-C18 diacid])AQ[Aib][Orn]FI[dE]YLIEGGPSSGEPPPSGTEE-NH2 [Example 535]”, the EC50 is 1.16 nM on hGIPR [1]; 238 nM on human GcgR; 0.0183 nM at hGIPR [2]; 0.418 nM on hGLP-1R [3]; 3.16 nM at hGcgR; 29.9 nM on hGLP-1R [4].

Regarding “H-Y[Aib]QGTFTSDFS[Dab][αMeL]LDKK([AEEA-γGlu-C18 diacid])AQ[Aib]AFIEYLLE[Aib]GPSSGAPPPSGS-NH2 [Example 133]”, the EC50 was determined as 23.1 nM on hGIPR [1]; 642 nM at human GcgR; 0.15 nM at hGIPR [2] (setting [5]); 3.6 nM at hGLP-1R [3] (setting [5]); 1.64 nM on hGcgR (setting [5]); 1180 nM on hGLP-1R [4].

Consider “H-Y[Aib]QGT[αMePhe(2-F)]TSD[4Pal][αMeS]I[αMeL]LD[Orn]K([AEEA-γGlu-C18 diacid])AQ[αMe4Pal]EFI[dE][αMeY]LIEGGPSSGEPPPEGGGE-NH2 [Example 760]”, for which the EC50 at hGIPR [1] was 1.29 nM; at human GcgR, 239 nM; on hGIPR [2], 0.00722 nM; at hGLP-1R [3] it was 0.395 nM; at hGcgR it was 1.59 nM; on hGLP-1R [4] it was 43.6 nM.

Turning to “H-Y[Aib]QGTFTSDFSK[αMeL]LDKK([AEEA-γGlu-C20 diacid])AQ[Aib]AFIEYLLAGGPSSGEPPPSGG-NH2 [Example 6]”, the EC50 on hGIPR [1] was found to be 46.6 nM; on human GcgR it was 1380 nM; at hGIPR [2] (setting [5]), 0.232 nM; on hGLP-1R [3] (setting [5]) it was 1.95 nM; on hGcgR (setting [5]), 6.89 nM; at hGLP-1R [4] it was 446 nM.

On to “H-Y[Aib]QGT[αMePhe(2-F)]TSDYSKLLDKIAQK([AEEA-γGlu-C20 diacid])AFIEYLIEGGPSSGAPPPSGE-NH2 [Example 356]”, for which the EC50 is 19.2 nM on hGIPR [1]; 2680 nM on human GcgR; 0.0613 nM on hGIPR [2] (setting [5]); 0.599 nM at hGLP-1R [3] (setting [5]); 4.76 nM at hGcgR (setting [5]); 206 nM on hGLP-1R [4].

On to “H-Y[Aib]QGTFTSDYSI[αMeL]LDKQAAK([AEEA-AEEA-γGlu-C20 diacid])QFVEWLLA[Aib]GPSSGAPPPSEG-NH2 [Example 327]”, for which the half-maximal effective concentration (EC50) on hGIPR [1] is 63.3 nM; on human GcgR it was 1400 nM; on hGIPR [2] (setting [5]), 0.312 nM; at hGLP-1R [3] (setting [5]) it was 1.61 nM; at hGcgR (setting [5]), 3.04 nM; on hGLP-1R [4], 473 nM.

Turning to “H-Y[Aib]QGT[αMePhe(2-F)]TSD[4Pal][αMeS]I[αMeL]LD[Orn]K([γGlu-γGlu-C18 diacid])AQ[Aib]QFI[dE][αMeY]LQEGGPSSGEPPPEGTGE-NH2 [Example 529]”, the EC50 at hGIPR [1] amounted to 1.39 nM; at human GcgR, 398 nM; on hGIPR [2], 0.0273 nM; at hGLP-1R [3], 0.467 nM; on hGcgR, 6.59 nM; on hGLP-1R [4], 24.5 nM.

Turning to “H-Y[Aib]QGT[αMePhe(2-F)]TSD[4Pal]SI[αMeL]LD[Orn]K([γGlu-γGlu-C18 diacid])AQ[αMe4Pal]EFI[dE][αMeY]LAEGGPSSGAPPPSGS-NH2 [Example 646]”, the EC50 amounted to 1.09 nM at hGIPR [1]; 1260 nM on human GcgR; 0.0336 nM on hGIPR [2]; 2.58 nM on hGLP-1R [3]; 23.1 nM at hGcgR; 90.5 nM at hGLP-1R [4].

For the substance “Y[Aib]QGT[αMePhe(2-F)]TSD[4Pal][αMeS]I[αMeL]LD[Orn]K([AEEA-γGlu-C18 diacid])AQ[αMe4Pal]EFI[dE][αMeY]LVEGGPSSGEPPPSGGGE-NH2 [Example 735]”, the EC50 at hGIPR [1] was found to be 1.32 nM; at human GcgR it was 236 nM; at hGIPR [2], 0.012 nM; on hGLP-1R [3], 0.386 nM; on hGcgR it was 1.97 nM; on hGLP-1R [4], 40.7 nM.

“H-Y[Aib]QGT[αMePhe(2-F)]TSD[4Pal]SI[αMeL]LD[Orn]K([γGlu-γGlu-C18 diacid])AQ[αMe4Pal][Orn]FI[dE][αMeY]LIEGGPSSGEPPPESE-NH2 [Example 685]”: the EC50 at hGIPR [1] turned out to be 0.497 nM; at human GcgR, 160 nM; at hGIPR [2], 0.00809 nM; at hGLP-1R [3], 0.308 nM; on hGcgR, 2.18 nM; at hGLP-1R [4], 18.7 nM.

For “H-Y[Aib]QGTFTSD[4Pal][αMeS]Q[αMeL]LD[Orn]K([dE-γGlu-C18 diacid])AQ[αMe4Pal]QFIE[αMeY]LIE[Aib]GPSSGAPPPSGGGE-NH2 [Example 1187]”, the EC50 on hGIPR [1] was determined as 7.11 nM; on human GcgR, 370 nM; on hGIPR [2] (setting [5]), 0.0648 nM; at hGLP-1R [3] (setting [5]), 1.06 nM; at hGcgR (setting [5]) it was 1.81 nM; at hGLP-1R [4] it was 154 nM.

Turning to “H-Y[Aib]QGT[αMePhe(2-F)]TSD[4Pal][αMeS]I[αMeL]LD[Orn]K([AEEA-γGlu-C18 diacid])AA[Aib]EFI[dE][αMeY]LIEGGPSSGEPPPSGGGE-NH2 [Example 746]”, the EC50 at hGIPR [1] was 1.44 nM; at human GcgR, 255 nM; at hGIPR [2], 0.0119 nM; at hGLP-1R [3], 0.261 nM; on hGcgR, 1.62 nM; at hGLP-1R [4], 38.6 nM.
